Test results as given in patent publication US20230000813A1, “COMPOUND FOR THE TREATMENT OF BOVINE OR SWINE RESPIRATORY DISEASE” (Intervet Inc., priority 2016, published 2023).
In brackets after ≈: the same amount, converted by molar mass.

Key:
Test in all cases: MIC, broth-microdilution (CLSI VET01-A4)
Type in all cases: cell-based
[1] = test system: Mannheimia haemolytica MH 13065 (XB0446-6003.9, BRD field isolate)
Procedure, shortened: (§1)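 MIC read by eye as lowest compound concentration without visible growth (no turbidity), interpreted per CLSI VET01-S3. Doubling-dilution broth-microdilution trays, run according to CLSI VET01-A4.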

[2] = test system: Mannheimia haemolytica MH 13093 (XB0472-6014.1, BRD field isolate)
Procedure, shortened: as §1

[3] = test system: Pasteurella multocida PM 6267 (P 2225 (L386), reference strain, mouse infection strain); conditions: Pasteurella multocida PM 6267; for MIC: read-out: MIC PM 6267
Procedure, shortened: (§2)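 Doubling dilution series in microdilution trays; endpoint = lowest conc. without visible growth (no turbidity, unaided eye); interpretation per CLSI VET01-S3.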

[4] = test system: Mannheimia haemolytica MH 6357 (M7/2, reference strain, cattle infection strain); conditions: Mannheimia haemolytica MH 6357; read-out: MIC MH 6357
Procedure, shortened: as §2

[5] = test system: Mannheimia haemolytica MH 10720 (154, BRD field isolate); conditions: Mannheimia haemolytica MH 10720; for MIC: read-out: MIC MH 10720
Procedure, shortened: as §2

[6] = test system: Mannheimia haemolytica MH 12587 (1071, BRD field isolate, macrolide-resistance: erm+, E+); conditions: Mannheimia haemolytica MH 12587, macrolide-resistant
Procedure, shortened: as §2

[7] = test system: Mannheimia haemolytica MH 6374 (ATCC 33396, reference strain); conditions: Mannheimia haemolytica MH 6374; for MIC: read-out: MIC MH 6374
Procedure, shortened: as §2

[8] = test system: Pasteurella multocida PM 10775 (080130003051, BRD field isolate); conditions: Pasteurella multocida PM 10775
Procedure, shortened: as §2

[9] = test system: Pasteurella multocida PM 6391 (ATCC 43137, reference strain); conditions: Pasteurella multocida PM 6391; for MIC: read-out: MIC PM 6391
Procedure, shortened: as §2

[10] = test system: Pasteurella multocida PM 12080 (IV102277-0093, BRD field isolate); conditions: Pasteurella multocida PM 12080; for MIC: read-out: MIC PM 12080
Procedure, shortened: as §2

Row | Compound | MIC [1] [µM] | MIC [2] [µM] | MIC PM 6267 [3] | MIC [4] [µM] | MIC MH 10720 [5] | MIC MH 12587 [6] [µM] | MIC [7] [µM] | MIC PM 10775 [8] | MIC PM 6391 [9] | MIC PM 12080 [10] | MIC [9] [µM] | MIC MH 13065 [1] | MIC MH 6374 [7] | MIC [3] [µM] | MIC [5] [µM] | MIC [10] [µM] | MIC ([8]; read-out: MIC PM 10775) [µM]
1 | CC(C)C(NC(=O)c1ccc(C#Cc2ccc(CNCc3nccs3)cc2)cc1)C(=O)NO (stereo not shown) [Compound 341] | 0.2 (≈ 0.0925 µg/mL) | 0.4 (≈ 0.185 µg/mL) | <=0.1 μM | 0.2 (≈ 0.0925 µg/mL) | <=0.1 μM | 0.4 (≈ 0.185 µg/mL) | 0.4 (≈ 0.185 µg/mL) | <=0.1 μM | <=0.1 μM | <=0.1 μM |  |  |  |  |  |  | 
2 | C[C@@H](O)[C@H](NC(=O)c1ccc(C#Cc2ccc(CNCc3nccs3)cc2)cc1)C(=O)NO [Compound 359] | 0.2 (≈ 0.0929 µg/mL) | 0.4 (≈ 0.186 µg/mL) | <=0.1 μM | 0.2 (≈ 0.0929 µg/mL) | <=0.1 μM | 0.4 (≈ 0.186 µg/mL) | 0.2 (≈ 0.0929 µg/mL) | <=0.1 μM | <=0.1 μM | <=0.1 μM |  |  |  |  |  |  | 
3 | CC(C)(N)C(NC(=O)c1ccc(C#Cc2ccc(CNCc3nccs3)cc2)cc1)C(=O)NO (stereo not shown) [Compound 562] | 0.8 (≈ 0.382 µg/mL) | 0.8 (≈ 0.382 µg/mL) | <=0.1 μM | 0.8 (≈ 0.382 µg/mL) | <=0.1 μM | 1.6 (≈ 0.764 µg/mL) | 0.8 (≈ 0.382 µg/mL) | <=0.1 μM | <=0.1 μM | <=0.1 μM |  |  |  |  |  |  | 
4 | CC(C)(N)C(NC(=O)c1ccc(C#Cc2ccc(CNCc3nccs3)s2)cc1)C(=O)NO (stereo not shown) [Compound 564] | 0.8 (≈ 0.387 µg/mL) | 0.8 (≈ 0.387 µg/mL) | <=0.1 μM | 0.8 (≈ 0.387 µg/mL) | <=0.1 μM | 0.8 (≈ 0.387 µg/mL) | 0.4 (≈ 0.193 µg/mL) | <=0.1 μM | <=0.1 μM | <=0.1 μM |  |  |  |  |  |  | 
5 | CC(C)(O)C(NC(=O)c1ccc(C#Cc2ccc(CNC3CC3)cc2)cc1)C(=O)NO (stereo not shown) [Compound 565] | 0.4 (≈ 0.169 µg/mL) | 0.8 (≈ 0.337 µg/mL) | <=0.1 μM | 1.6 (≈ 0.674 µg/mL) | <=0.1 μM | 1.6 (≈ 0.674 µg/mL) | 0.4 (≈ 0.169 µg/mL) | <=0.1 μM | <=0.1 μM | <=0.1 μM |  |  |  |  |  |  | 
6 | CC(C)(O)C(NC(=O)c1ccc(C#Cc2ccc(CNCc3ccccc3)cc2)cc1)C(=O)NO (stereo not shown) [Compound 569] | 0.4 (≈ 0.189 µg/mL) | 0.4 (≈ 0.189 µg/mL) | <=0.1 μM | 0.8 (≈ 0.377 µg/mL) | <=0.1 μM | 0.8 (≈ 0.377 µg/mL) | 0.4 (≈ 0.189 µg/mL) | <=0.1 μM | <=0.1 μM | <=0.1 μM |  |  |  |  |  |  | 
7 | COc1ccc(CNCc2ccc(C#Cc3ccc(C(=O)NC(C(=O)NO)C(C)(C)O)cc3)cc2)cc1 (stereo not shown) [Compound 570] | 0.8 (≈ 0.401 µg/mL) | 0.8 (≈ 0.401 µg/mL) | <=0.1 μM | 0.8 (≈ 0.401 µg/mL) | <=0.1 μM | 1.6 (≈ 0.803 µg/mL) | 0.8 (≈ 0.401 µg/mL) | <=0.1 μM |  | <=0.1 μM | 0.4 (≈ 0.201 µg/mL) |  |  |  |  |  | 
8 | CC(C)(O)C(NC(=O)c1ccc(C#Cc2ccc(CNCc3cccnc3)cc2)cc1)C(=O)NO (stereo not shown) [Compound 574] | 0.4 (≈ 0.189 µg/mL) | 0.8 (≈ 0.378 µg/mL) | <=0.1 μM | 0.8 (≈ 0.378 µg/mL) | <=0.1 μM | 1.6 (≈ 0.756 µg/mL) | 0.4 (≈ 0.189 µg/mL) | <=0.1 μM | <=0.1 μM | <=0.1 μM |  |  |  |  |  |  | 
9 | CC(C)(O)C(NC(=O)c1ccc(C#Cc2ccc(CNCc3ccnc(Cl)c3)cc2)cc1)C(=O)NO (stereo not shown) [Compound 575] | 0.2 (≈ 0.101 µg/mL) | 0.4 (≈ 0.203 µg/mL) | <=0.1 μM | 0.4 (≈ 0.203 µg/mL) | <=0.1 μM | 0.4 (≈ 0.203 µg/mL) | 0.4 (≈ 0.203 µg/mL) | <=0.1 μM | <=0.1 μM | <=0.1 μM |  |  |  |  |  |  | 
10 | CC(C)(O)C(NC(=O)c1ccc(C#Cc2ccc(CNCc3ccccn3)cc2)cc1)C(=O)NO (stereo not shown) [Compound 576] | 0.8 (≈ 0.378 µg/mL) | 0.8 (≈ 0.378 µg/mL) | <=0.1 μM | 0.8 (≈ 0.378 µg/mL) | <=0.1 μM | 1.6 (≈ 0.756 µg/mL) | 0.4 (≈ 0.189 µg/mL) | <=0.1 μM | <=0.1 μM | <=0.1 μM |  |  |  |  |  |  | 
11 | CC(C)(O)C(NC(=O)c1ccc(C#Cc2ccc(CNCc3ccco3)cc2)cc1)C(=O)NO (stereo not shown) [Compound 577] | 0.2 (≈ 0.0923 µg/mL) | 0.4 (≈ 0.185 µg/mL) | <=0.1 μM | 0.4 (≈ 0.185 µg/mL) | <=0.1 μM | 0.8 (≈ 0.369 µg/mL) | 0.2 (≈ 0.0923 µg/mL) | <=0.1 μM | <=0.1 μM | <=0.1 μM |  |  |  |  |  |  | 
12 | CC(C)(O)C(NC(=O)c1ccc(C#Cc2ccc(CNCc3cccs3)cc2)cc1)C(=O)NO (stereo not shown) [Compound 578] |  | 0.2 (≈ 0.0955 µg/mL) | <=0.1 μM | 0.4 (≈ 0.191 µg/mL) | <=0.1 μM | 0.4 (≈ 0.191 µg/mL) |  | <=0.1 μM | <=0.1 μM | <=0.1 μM |  | <=0.1 μM | <=0.1 μM |  |  |  | 
13 | Cc1ccc(CNCc2ccc(C#Cc3ccc(C(=O)NC(C(=O)NO)C(C)(C)O)cc3)cc2)cc1 (stereo not shown) [Compound 579] | 0.4 (≈ 0.194 µg/mL) | 0.8 (≈ 0.388 µg/mL) | <=0.1 μM | 0.8 (≈ 0.388 µg/mL) | <=0.1 μM | 1.6 (≈ 0.777 µg/mL) | 0.4 (≈ 0.194 µg/mL) | <=0.1 μM |  | <=0.1 μM | 0.2 (≈ 0.0971 µg/mL) |  |  |  |  |  | 
14 | CSC(C)(C)C(NC(=O)c1ccc(C#Cc2ccc(CNC3CC3)cc2)cc1)C(=O)NO (stereo not shown) [Compound 581] | 0.4 (≈ 0.181 µg/mL) | 0.4 (≈ 0.181 µg/mL) | <=0.1 μM | 0.4 (≈ 0.181 µg/mL) | <=0.1 μM | 1.6 (≈ 0.723 µg/mL) | 0.8 (≈ 0.361 µg/mL) | <=0.1 μM | <=0.1 μM | <=0.1 μM |  |  |  |  |  |  | 
15 | CSC(C)(C)C(NC(=O)c1ccc(C#Cc2ccc(CNCc3ccccc3)cc2)cc1)C(=O)NO (stereo not shown) [Compound 585] | 0.8 (≈ 0.401 µg/mL) | 0.8 (≈ 0.401 µg/mL) |  | 0.8 (≈ 0.401 µg/mL) |  | 1.6 (≈ 0.803 µg/mL) | 1.6 (≈ 0.803 µg/mL) | <=0.1 μM |  |  | 0.4 (≈ 0.201 µg/mL) |  |  | 0.2 (≈ 0.1 µg/mL) | 0.2 (≈ 0.1 µg/mL) | 0.4 (≈ 0.201 µg/mL) | 
16 | COc1ccc(CNCc2ccc(C#Cc3ccc(C(=O)NC(C(=O)NO)C(C)(C)SC)cc3)cc2)cc1 (stereo not shown) [Compound 586] | 1.6 (≈ 0.851 µg/mL) | 1.6 (≈ 0.851 µg/mL) |  | 1.6 (≈ 0.851 µg/mL) |  | 1.6 (≈ 0.851 µg/mL) | 1.6 (≈ 0.851 µg/mL) |  |  |  | 0.8 (≈ 0.425 µg/mL) |  |  | 0.2 (≈ 0.106 µg/mL) | 0.4 (≈ 0.213 µg/mL) | 0.4 (≈ 0.213 µg/mL) | 0.2 (≈ 0.106 µg/mL)
17 | CSC(C)(C)[C@H](NC(=O)c1ccc(C#Cc2ccc(CNCc3ccncc3)cc2)cc1)C(=O)NO [Compound 587] | 0.4 (≈ 0.201 µg/mL) | 0.4 (≈ 0.201 µg/mL) | <=0.1 μM | 0.4 (≈ 0.201 µg/mL) | <=0.1 μM | 0.8 (≈ 0.402 µg/mL) | 0.8 (≈ 0.402 µg/mL) | <=0.1 μM | <=0.1 μM | <=0.1 μM |  |  |  |  |  |  | 
18 | CSC(C)(C)[C@H](NC(=O)c1ccc(C#Cc2ccc(CNCC#N)cc2)cc1)C(=O)NO [Compound 592] | 0.8 (≈ 0.36 µg/mL) | 0.4 (≈ 0.18 µg/mL) | <=0.1 μM | 0.4 (≈ 0.18 µg/mL) | <=0.1 μM | 0.8 (≈ 0.36 µg/mL) | 0.8 (≈ 0.36 µg/mL) | <=0.1 μM |  |  | 0.2 (≈ 0.0901 µg/mL) |  |  |  |  | 0.2 (≈ 0.0901 µg/mL) | 
19 | CSC(C)(C)[C@H](NC(=O)c1ccc(C#Cc2ccc(CNCc3cccnc3)cc2)cc1)C(=O)NO [Compound 593] | 0.4 (≈ 0.201 µg/mL) | 0.8 (≈ 0.402 µg/mL) | <=0.1 μM | 0.4 (≈ 0.201 µg/mL) |  | 0.8 (≈ 0.402 µg/mL) | 0.8 (≈ 0.402 µg/mL) | <=0.1 μM |  |  | 0.8 (≈ 0.402 µg/mL) |  |  |  | 0.2 (≈ 0.101 µg/mL) | 0.2 (≈ 0.101 µg/mL) | 
